Experimental data from US4016158A, “Cephalosporin derivatives” (Roussel-UCLAF, priority 1971, dated 1977).
In brackets after ≈: the same amount, converted by molar mass. Where two headings read alike, the source gives them in different places.

Columns and labels:
Experiment in all cases: MIC (Table II)
Assay type in all cases: cell-based
Escherichia coli 51 = settings: read-out: minimum inhibition concentration
Experimental: (§1) The antibiotic activity was determined by the diffusion method in a gelose medium at a pH of 7. The following Table expresses the minimum concentration of inhibition in mcg/ml (CMl) for the products against different microbial strains.
(§2) Using the same procedure as in Table I, the minimum inhibition concentration in mcg/ml was determined against different microbial strains with L(-) cis 7-[D(-)-α-aminophenylacetamido]-3-isopropyl-3-cepheme-4-carboxylic acid (product A) of Example 9.

Proteus mirabilis 8029 = settings: read-out: minimum inhibition concentration
Experimental: as §1, §2

Escherichia coli 152 = settings: read-out: minimum inhibition concentration
Experimental: as §1, §2

[1] = tested on: Staphylococcus aureus 980; settings: 24h, read-out: minimum inhibition concentration
Experimental: as §1, §2

[2] = tested on: Staphylococcus aureus 54146; settings: read-out: minimum inhibition concentration
Experimental: as §1, §2

Escherichia coli 5369 = settings: read-out: minimum inhibition concentration
Experimental: as §1, §2

Shigella sonnei = settings: read-out: minimum inhibition concentration
Experimental: as §1, §2

[3] = tested on: Staphylococcus aureus 9561; settings: read-out: minimum inhibition concentration
Experimental: as §1, §2

[4] = tested on: Staphylococcus aureus 5880; settings: read-out: minimum inhibition concentration
Experimental: as §1, §2

[5] = tested on: Staphylococcus aureus 017; settings: read-out: minimum inhibition concentration
Experimental: as §1, §2

Shigella flexneri = settings: read-out: minimum inhibition concentration
Experimental: as §1, §2

[6] = tested on: Staphylococcus aureus 4546; settings: Staphylococcus aureus, 4546, read-out: minimum inhibition concentration
Experimental: as §1, §2

[7] = tested on: Staphylococcus aureus 9482; settings: Staphylococcus aureus, 9482, read-out: minimum inhibition concentration
Experimental: as §1, §2

[8] = tested on: Staphylococcus aureus 9373; settings: Staphylococcus aureus, 9373, read-out: minimum inhibition concentration
Experimental: as §1, §2

Proteus mirabilis 1668 = settings: read-out: minimum inhibition concentration
Experimental: as §1, §2

[9] = tested on: Salmonella brandebourg 550; settings: read-out: minimum inhibition concentration
Experimental: as §1, §2

Escherichia coli 1718 = settings: read-out: minimum inhibition concentration
Experimental: as §1, §2

Escherichia coli 5003 = settings: read-out: minimum inhibition concentration
Experimental: as §1, §2

Proteus mirabilis 6194 = settings: read-out: minimum inhibition concentration
Experimental: as §1, §2

[10] = tested on: Staphylococcus aureus 1098; settings: read-out: minimum inhibition concentration
Experimental: as §1, §2

[11] = tested on: Diplococcus pneumoniae 735; settings: Streptococcus pneumoniae, read-out: minimum inhibition concentration
Experimental: as §1, §2

[12] = tested on: Staphylococcus aureus 9729; settings: Staphylococcus aureus, 9729, read-out: minimum inhibition concentration
Experimental: as §1, §2

[13] = tested on: Staphylococcus aureus 8514; settings: read-out: minimum inhibition concentration
Experimental: as §1, §2

[14] = tested on: Staphylococcus aureus A8P; settings: read-out: minimum inhibition concentration
Experimental: as §1, §2

[15] = tested on: Staphylococcus aureus Frottis nasal; settings: read-out: minimum inhibition concentration
Experimental: as §1, §2

Escherichia coli 070 = settings: read-out: minimum inhibition concentration
Experimental: as §1, §2

Escherichia coli Taylor = settings: read-out: minimum inhibition concentration
Experimental: as §1, §2

[16] = tested on: Staphylococcus aureus 889; settings: Staphylococcus aureus, 889, read-out: minimum inhibition concentration
Experimental: as §1, §2

[17] = tested on: Klebsiella pneumoniae 52145; settings: read-out: minimum inhibition concentration
Experimental: as §1, §2

[18] = tested on: Salmonella typhimurium 420; settings: Salmonella enterica, read-out: minimum inhibition concentration
Experimental: as §1, §2

Escherichia coli 4965 = settings: read-out: minimum inhibition concentration
Experimental: as §1, §2

Proteus mirabilis 8065 = settings: read-out: minimum inhibition concentration
Experimental: as §1, §2

CC(C)C1=C(C(=O)O)N2C(=O)[C@@H](NC(=O)[C@H](N)c3ccccc3)[C@H]2SC1 [Example 9, L (+) cis 7-[D (-)-α-aminophenylacetamido]-3-isopropyl-3-cepheme-4-carboxylic acid]
MIC (Escherichia coli 51; 24h): 100 µg/mL (≈ 266 µM) | MIC (Escherichia coli 51; 48h): > 100 µg/mL | MIC (Proteus mirabilis 8029; 24h): 60 µg/mL (≈ 160 µM) | MIC (Proteus mirabilis 8029; 48h): > 100 µg/mL | MIC (Escherichia coli 152; 24h): 30 µg/mL (≈ 79.9 µM) | MIC (Escherichia coli 152; 48h): 30 µg/mL (≈ 79.9 µM) | MIC (Escherichia coli 152; 72h): 40 µg/mL (≈ 107 µM) | MIC [1]: > 40 µg/mL | MIC ([2]; 24h): 1 µg/mL (≈ 2.66 µM) | MIC ([2]; 48h): 1 µg/mL (≈ 2.66 µM) | MIC ([2]; 72h): 2 µg/mL (≈ 5.33 µM) | MIC (Escherichia coli 5369; 24h): 30 µg/mL (≈ 79.9 µM) | MIC (Escherichia coli 5369; 48h): 40 µg/mL (≈ 107 µM) | MIC (Escherichia coli 5369; 72h): 100 µg/mL (≈ 266 µM) | MIC (Shigella sonnei; 24h): 30 µg/mL (≈ 79.9 µM) | MIC (Shigella sonnei; 48h): 30 µg/mL (≈ 79.9 µM) | MIC (Shigella sonnei; 72h): 30 µg/mL (≈ 79.9 µM) | MIC ([3]; 24h): 1 µg/mL (≈ 2.66 µM) | MIC ([3]; 48h): 3 µg/mL (≈ 7.99 µM) | MIC ([3]; 72h): 10 µg/mL (≈ 26.6 µM) | MIC ([4]; 24h): 2 µg/mL (≈ 5.33 µM) | MIC ([4]; 48h): 3 µg/mL (≈ 7.99 µM) | MIC ([4]; 72h): 10 µg/mL (≈ 26.6 µM) | MIC ([5]; 24h): 2 µg/mL (≈ 5.33 µM) | MIC ([5]; 48h): 5 µg/mL (≈ 13.3 µM) | MIC ([5]; 72h): 15 µg/mL (≈ 40 µM) | MIC (Shigella flexneri; 24h): 20 µg/mL (≈ 53.3 µM) | MIC (Shigella flexneri; 48h): 40 µg/mL (≈ 107 µM) | MIC (Shigella flexneri; 72h): 40 µg/mL (≈ 107 µM) | MIC ([6]; 24h): 0.6 µg/mL (≈ 1.6 µM) | MIC ([6]; 48h): 2 µg/mL (≈ 5.33 µM) | MIC ([6]; 72h): 3 µg/mL (≈ 7.99 µM) | MIC ([7]; 24h): 1 µg/mL (≈ 2.66 µM) | MIC ([7]; 48h): 2 µg/mL (≈ 5.33 µM) | MIC ([7]; 72h): 2 µg/mL (≈ 5.33 µM) | MIC ([8]; 24h): 1 µg/mL (≈ 2.66 µM) | MIC ([8]; 48h): 3 µg/mL (≈ 7.99 µM) | MIC ([8]; 72h): 5 µg/mL (≈ 13.3 µM) | MIC (Proteus mirabilis 1668; 24h): 100 µg/mL (≈ 266 µM) | MIC (Proteus mirabilis 1668; 48h): > 100 µg/mL | MIC ([9]; 24h): 30 µg/mL (≈ 79.9 µM) | MIC ([9]; 48h): 30 µg/mL (≈ 79.9 µM) | MIC ([9]; 72h): 40 µg/mL (≈ 107 µM) | MIC (Escherichia coli 1718; 24h): 40 µg/mL (≈ 107 µM) | MIC (Escherichia coli 1718; 48h): 40 µg/mL (≈ 107 µM) | MIC (Escherichia coli 1718; 72h): 60 µg/mL (≈ 160 µM) | MIC (Escherichia coli 5003; 24h): 40 µg/mL (≈ 107 µM) | MIC (Escherichia coli 5003; 48h): 40 µg/mL (≈ 107 µM) | MIC (Escherichia coli 5003; 72h): 40 µg/mL (≈ 107 µM) | MIC (Proteus mirabilis 6194; 24h): 60 µg/mL (≈ 160 µM) | MIC (Proteus mirabilis 6194; 48h): 80 µg/mL (≈ 213 µM) | MIC (Proteus mirabilis 6194; 72h): > 100 µg/mL | MIC ([10]; 24h): 0.4 µg/mL (≈ 1.07 µM) | MIC ([10]; 48h): 1 µg/mL (≈ 2.66 µM) | MIC ([10]; 72h): 3 µg/mL (≈ 7.99 µM) | MIC ([11]; 24h): 0.4 µg/mL (≈ 1.07 µM) | MIC ([11]; 48h): 1 µg/mL (≈ 2.66 µM) | MIC ([11]; 72h): 1 µg/mL (≈ 2.66 µM) | MIC ([12]; 24h): 2 µg/mL (≈ 5.33 µM) | MIC ([12]; 48h): 2 µg/mL (≈ 5.33 µM) | MIC ([12]; 72h): 5 µg/mL (≈ 13.3 µM) | MIC ([13]; 24h): 1 µg/mL (≈ 2.66 µM) | MIC ([13]; 48h): 2 µg/mL (≈ 5.33 µM) | MIC ([13]; 72h): 2 µg/mL (≈ 5.33 µM) | MIC ([14]; 24h): 1 µg/mL (≈ 2.66 µM) | MIC ([14]; 48h): 3 µg/mL (≈ 7.99 µM) | MIC ([14]; 72h): 10 µg/mL (≈ 26.6 µM) | MIC ([15]; 24h): 2 µg/mL (≈ 5.33 µM) | MIC ([15]; 48h): 3 µg/mL (≈ 7.99 µM) | MIC ([15]; 72h): 10 µg/mL (≈ 26.6 µM) | MIC (Escherichia coli 070; 24h): 40 µg/mL (≈ 107 µM) | MIC (Escherichia coli 070; 48h): 40 µg/mL (≈ 107 µM) | MIC (Escherichia coli 070; 72h): 40 µg/mL (≈ 107 µM) | MIC (Escherichia coli Taylor; 24h): 40 µg/mL (≈ 107 µM) | MIC (Escherichia coli Taylor; 48h): 40 µg/mL (≈ 107 µM) | MIC (Escherichia coli Taylor; 72h): 60 µg/mL (≈ 160 µM) | MIC ([16]; 24h): 5 µg/mL (≈ 13.3 µM) | MIC ([16]; 48h): 10 µg/mL (≈ 26.6 µM) | MIC ([16]; 72h): 20 µg/mL (≈ 53.3 µM) | MIC ([17]; 24h): 30 µg/mL (≈ 79.9 µM) | MIC ([17]; 48h): 60 µg/mL (≈ 160 µM) | MIC ([17]; 72h): > 100 µg/mL | MIC ([18]; 24h): 60 µg/mL (≈ 160 µM) | MIC ([18]; 48h): 60 µg/mL (≈ 160 µM) | MIC ([18]; 72h): > 100 µg/mL | MIC (Escherichia coli 4965; 24h): 30 µg/mL (≈ 79.9 µM) | MIC (Escherichia coli 4965; 48h): 40 µg/mL (≈ 107 µM) | MIC (Escherichia coli 4965; 72h): 40 µg/mL (≈ 107 µM) | MIC (Proteus mirabilis 8065; 24h): 60 µg/mL (≈ 160 µM) | MIC (Proteus mirabilis 8065; 48h): > 100 µg/mL
